This test has as its target TrkA (Homo sapiens (Human), UniProt P04629). As to the kind of experiment: TrkA Omnia Assay. The test is classed as biochemical. The following applies: averaged IC50; 20 nM enzyme, 500 μM ATP, 10 μM peptide substrate. The procedure, abridged:
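Recombinant TrkA (20 nM) preincubated 10 min at ambient temperature with compound, then Omnia Tyr Peptide #4 (10 μM) and ATP (500 μM) added in 25 mM MOPS pH 7.5, 5 mM MgCl2, 0.005% Triton X-100. Fluorescence (ex 360/em 485 nm) followed continuously for 70 min; IC50 from initial rates by 4- or 5-parameter logistic fit.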

As usually defined, the IC50 is the concentration at which inhibition is half-maximal. Low values mean higher potency, high ones lower potency.

The structures appear in SMILES notation. Some results are limits rather than exact numbers.

TrkA, sequence (P04629 33-796): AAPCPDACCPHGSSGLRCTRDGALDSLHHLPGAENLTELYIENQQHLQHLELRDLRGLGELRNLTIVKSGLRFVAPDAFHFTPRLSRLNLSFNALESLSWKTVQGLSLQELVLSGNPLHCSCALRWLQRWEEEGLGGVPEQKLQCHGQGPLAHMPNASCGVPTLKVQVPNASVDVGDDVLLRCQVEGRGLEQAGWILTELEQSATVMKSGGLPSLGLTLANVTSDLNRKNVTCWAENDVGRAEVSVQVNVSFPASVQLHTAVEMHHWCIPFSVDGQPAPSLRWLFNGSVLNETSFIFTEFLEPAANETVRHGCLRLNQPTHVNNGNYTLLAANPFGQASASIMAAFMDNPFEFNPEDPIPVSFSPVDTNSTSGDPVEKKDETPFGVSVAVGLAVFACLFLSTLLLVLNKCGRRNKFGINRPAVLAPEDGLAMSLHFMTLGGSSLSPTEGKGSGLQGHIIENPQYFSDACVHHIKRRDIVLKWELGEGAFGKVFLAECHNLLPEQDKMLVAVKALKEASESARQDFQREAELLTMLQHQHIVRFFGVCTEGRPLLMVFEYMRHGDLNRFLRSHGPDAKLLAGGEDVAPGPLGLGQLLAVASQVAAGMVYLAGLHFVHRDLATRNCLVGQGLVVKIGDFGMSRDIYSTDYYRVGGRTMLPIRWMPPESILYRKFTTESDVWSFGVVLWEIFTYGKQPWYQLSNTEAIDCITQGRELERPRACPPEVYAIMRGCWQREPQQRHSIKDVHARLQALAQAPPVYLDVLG

`CCOc1nn(-c2ccccc2)c(NC(=O)N[C@@H]2CN(CCOC)C[C@H]2c2cc(F)cc(F)c2)c1C` [Example 138, 1-((3S,4R)-4-(3,5-difluorophenyl)-1-(2-methoxyethyl)pyrrolidin-3-yl)-3-(3-ethoxy-4-methyl-1-phenyl-1H-pyrazol-5-yl)urea]: the IC50 was under 100 nM.

With `COCCN1C[C@@H](NC(=O)Nc2c(C)c(OC[C@H]3COC(C)(C)O3)nn2-c2ccccc2)[C@H](c2cc(F)c(F)c(F)c2)C1` [Example 398, 1-(3-(((S)-2,2-dimethyl-1,3-dioxolan-4-yl)methoxy)-4-methyl-1-phenyl-1H-pyrazol-5-yl)-3-((3S,4R)-1-(2-methoxyethyl)-4-(3,4,5-trifluorophenyl)pyrrolidin-3-yl)urea], the IC50 was under 100 nM.

With `COCCN1C[C@@H](NC(=O)Nc2c(Br)c(COC3CCN(S(C)(=O)=O)CC3)nn2-c2ccccc2)[C@H](c2ccc(F)c(F)c2)C1` [Example 599, 1-(4-bromo-3-((1-(methylsulfonyl)piperidin-4-yloxy)methyl)-1-phenyl-1H-pyrazol-5-yl)-3-((3S,4R)-4-(3,4-difluorophenyl)-1-(2-methoxyethyl)pyrrolidin-3-yl)urea], the IC50 was under 100 nM.

Molecule `COCCN1C[C@@H](NC(=O)Nc2cc(C(C)C)nn2-c2ccccc2)[C@H](c2cccc(Cl)c2)C1` (relative stereo) [Example 42, trans-1-(4-(3-chlorophenyl)-1-(2-methoxyethyl)pyrrolidin-3-yl)-3-(3-isopropyl-1-phenyl-1H-pyrazol-5-yl)urea] yielded a half-inhibitory concentration (IC50) of under 100 nM.

In turn, `COCCN1C[C@@H](NC(=O)Nc2c(C(N)=O)cnn2-c2ccccc2)[C@H](c2ccc(F)c(F)c2)C1` [Example 627, 5-(3-((3S,4R)-4-(3,4-difluorophenyl)-1-(2-methoxyethyl)pyrrolidin-3-yl)ureido)-1-phenyl-1H-pyrazole-4-carboxamide] came in with a 50% inhibitory concentration (IC50) of under 100 nM.

For the molecule `CCc1nn(-c2ccccc2)c(NC(=O)N[C@@H]2CN(CCOC)C[C@H]2c2ccc(F)c(F)c2)c1C#N` [Example 616, 1-(4-cyano-3-ethyl-1-phenyl-1H-pyrazol-5-yl)-3-((3S,4R)-4-(3,4-difluorophenyl)-1-(2-methoxyethyl)pyrrolidin-3-yl)urea.], the IC50 was under 100 nM.

In turn, `COCCN1C[C@@H](NC(=O)Nc2c(Br)c(C3CCN(S(C)(=O)=O)CC3)nn2-c2ccccc2)[C@H](c2ccc(F)c(F)c2)C1` [Example 592, 1-(4-bromo-3-(1-(methylsulfonyl)piperidin-4-yl)-1-phenyl-1H-pyrazol-5-yl)-3-((3S,4R)-4-(3,4-difluorophenyl)-1-(2-methoxyethyl)pyrrolidin-3-yl)urea] registered a half-inhibitory concentration (IC50) of under 100 nM.

For `COCCN1C[C@@H](NC(=O)Nc2c(C)c(-c3cnn(CC4CC4)c3)nn2-c2ccccc2)[C@H](c2ccc(F)c(F)c2)C1` [Example 500, 1-(1′-(cyclopropylmethyl)-4-methyl-l-phenyl-1H, 1′H-[3,4′-bipyrazol]-5-yl)-3-((3S,4R)-4-(3,4-difluorophenyl)-1-(2-methoxyethyl)pyrrolidin-3-yl)urea], the half-maximal inhibitory concentration (IC50) was under 100 nM.

In turn, `COCCN1C[C@@H](NC(=O)Nc2c3c(nn2-c2ccccc2)CCC3)[C@H](c2ccc(F)cc2)C1` [Example 128, 1-((3S,4R)-4-(4-fluorophenyl)-1-(2-methoxyethyl)pyrrolidin-3-yl)-3-(2-phenyl-2,4,5,6-tetrahydrocyclo-penta[c]pyrazol-3-yl)urea] showed an IC50 of under 100 nM.

Molecule `COCCN1C[C@@H](NC(=O)Nc2c(C)c(-c3cccnc3)nn2-c2ccccc2)[C@H](c2ccc(F)c(F)c2)C1` [Example 486, 1-((3S,4R)-4-(3,4-difluorophenyl)-1-(2-methoxyethyl)pyrrolidin-3-yl)-3-(4-methyl-1-phenyl-3-(pyridin-3-yl)-1H-pyrazol-5-yl)urea] registered an IC50 of under 100 nM.

Consider `Cc1c(OCC#N)nn(-c2ccccc2)c1NC(=O)N[C@H]1CN(CC(F)(F)F)C[C@@H]1c1ccccc1` [Example 268, 1-(3-(cyanomethoxy)-4-methyl-1-phenyl-1H-pyrazol-5-yl)-3-((3R,4S)-4-phenyl-1-(2,2,2-trifluoroethyl)pyrrolidin-3-yl)urea], for which the IC50 was under 100 nM.

Consider `CCOc1nn(-c2ccccc2)c(NC(=O)N[C@@H]2CN(c3cn[nH]c3)C[C@H]2c2cc(F)cc(F)c2)c1C` [Example 217, 1-((3S,4R)-4-(3,5-difluorophenyl)-1-(1H-pyrazol-4-yl)pyrrolidin-3-yl)-3-(3-ethoxy-4-methyl-1-phenyl-1H-pyrazol-5-yl)urea], for which the IC50 is under 100 nM.

`CCOc1nn(-c2ccccc2)c(NC(=O)N[C@@H]2CN(CCC#N)C[C@H]2c2ccc(F)c(F)c2)c1C` [Example 471, 1-((3S,4R)-1-(2-cyanoethyl)-4-(3,4-difluorophenyl)pyrrolidin-3-yl)-3-(3-ethoxy-4-methyl-1-phenyl-1H-pyrazol-5-yl)urea] returned an IC50 of 100 to 1000 nM.

In turn, `CCOc1nn(C)c(NC(=O)N[C@@H]2CN(CCOC)C[C@H]2c2ccc(F)c(F)c2)c1-c1ccccc1` [Example 157, 1-((3S,4R)-4-(3,4-difluorophenyl)-1-(2-methoxyethyl)pyrrolidin-3-yl)-3-(3-ethoxy-1-methyl-4-phenyl-1H-pyrazol-5-yl)urea] gave an IC50 of under 100 nM.

As to `COCCN1C[C@@H](NC(=O)Nc2c(C)c(C3CC3)nn2-c2ccccc2)[C@H](c2ccc(F)c(F)c2)C1` [Example 533, 1-(3-cyclopropyl-4-methyl-1-phenyl-1H-pyrazol-5-yl)-3-((3S,4R)-4-(3,4-difluorophenyl)-1-(2-methoxyethyl)pyrrolidin-3-yl)urea], the IC50 was under 100 nM.

As to `COCCN1C[C@@H](NC(=O)Nc2c(C)c(OS(=O)(=O)C(F)(F)F)nn2-c2ccccc2)[C@H](c2ccc(F)c(F)c2)C1` [Example 525, 5-(3-((3S,4R)-4-(3,4-difluorophenyl)-1-(2-methoxyethyl)pyrrolidin-3-yl)ureido)-4-methyl-1-phenyl-1H-pyrazol-3-yl trifluoromethanesulfonate], the concentration for half-maximal inhibition (IC50) is under 100 nM.

Molecule `COCCN1C[C@@H](NC(=O)Nc2c(Br)c(C)nn2-c2ccccc2)[C@H](c2cncc(F)c2)C1` [Example 433] registered an IC50 of under 100 nM.

In turn, `COCCN1CC(c2cnn(C)c2)[C@H](NC(=O)Nc2c(Br)c(C)nn2-c2ccccc2)C1` (stereo partly drawn) [Example 332] yielded an IC50 of 100 to 1000 nM.

For `CCOc1nn(-c2ccccc2)c(NC(=O)N[C@@H]2CN(CC(C)O)C[C@H]2c2ccc(F)c(F)c2)c1C` (stereo partly drawn) [Example 470, 1-((3S,4R)-4-(3,4-difluorophenyvl)-1-(2-hydroxypropyl)pyrrolidin-3-yl)-3-(3-ethoxy-4-methyl-1-phenyl-1H-pyrazol-5-yl)urea], the 50% inhibitory concentration (IC50) lay in the range of 100 to 1000 nM.

Molecule `COCCN1C[C@@H](NC(=O)Nc2c3c(nn2-c2ccccn2)CCC3)[C@H](c2ccccc2)C1` (relative stereo) [Example 35, 1-(trans-1-(2-methoxyethyl)-4-phenylpyrrolidin-3-yl)-3-(2-(pyridin-2-yl)-2,4,5,6-tetrahydrocyclopenta[c]pyrazol-3-yl)urea] had an IC50 of 1000 to 10000 nM.

Turning to `COCCN1C[C@@H](NC(=O)Nc2c(C)c(-c3cnn(C)c3)nn2-c2ccccc2)[C@H](c2ccc(F)c(Cl)c2)C1` [Example 465, 1-((3S,4R)-4-(3-chloro-4-fluorophenyl)-1-(2-methoxyethyl)pyrrolidin-3-yl)-3-(1′,4-dimethyl-1-phenyl-1H, 1′H-3,4′-bipyrazol-5-yl)urea], the IC50 is under 100 nM.

(Values after patent US10323022B2, “Pyrrolidinyl urea, pyrrolidinyl thiourea and pyrrolidinyl guanidine compounds as TrkA kinase inhibitors” (Array BioPharma Inc., priority 2011, dated 2019).)
